# Assay results reported in publication PMC6647725 (Analytical and Bioanalytical Chemistry, 2019).
# Tests used:
# [1] = Stability in mouse brain homogenate and its final extract; format: in vitro ADME
# Experimental: (§1) After weighing the complete organ, a volume of 3 mL of this solution was added to the liver and small intestine, 2 mL to the kidneys, and 1 mL to the brain and spleen. The tissue/BSA ratio (w/v) of the homogenates were approximately 0.4:1 for the brain and liver, 0.1:1 for the spleen, 0.2:1 for the kidneys, and 0.25:1 for the small intestine. All samples were shaken in the Fast Prep at 6.0 m/s during 60 s. The stability of each analyte was investigated in all the previously mentioned matrices. For plasma (both human and mouse), the stability was determined in triplicate at two concentration levels, QC L and QC H, whereas for mouse tissue homogenates only at QC M (except the brain in one stability condition). For all matrices, the following stability conditions were assessed: short term at room temperature (RT), long term at − 20 °C, and after 3 freeze-thaw (F/T) cycles at − 20 °C/RT. Furthermore, for tissue homogenates, the short-term stability in ice-water, long-term stability at − 70 °C, and F/T stability at − 70 °C/ice-water were also evaluated. Additionally, the stability in the final extract was tested. For this, the QC L and QC H final extracts from the plasma, brain, and spleen and the QC M final extract from the liver, kidney and small intestine were stored at 4–8 °C up to 3 days. Lastly, the stability of the stock solutions at − 20 °C was investigated.
# [2] = Stability in tissue homogenates; format: in vitro ADME, mouse
# Experimental: as §1, with “The” for “After weighing the complete organ, a volume of 3 mL of this solution was added to the liver and small intestine, 2 mL to the kidneys, and 1 mL to the brain and spleen. The tissue/BSA ratio (w/v) of the homogenates were approximately 0.4:1 for the brain and liver, 0.1:1 for the spleen, 0.2:1 for the kidneys, and 0.25:1 for the small intestine. All samples were shaken in the Fast Prep at 6.0 m/s during 60 s. The”
# [3] = Stability in mouse kidney homogenate and its final extract; format: in vitro ADME; details: nominal 50 ng/mL
# Experimental: as §1
# [4] = Stability in human plasma and its final extract (LC-MS/MS); format: in vitro ADME; details: nominal 5 ng/mL
# Experimental: (§2) 50 μL of the sample (either from a preclinical study, calibration standard, or QC) was mixed with 25 μL of IS-working solution, followed by 150 μL of ACN for protein precipitation. Samples were vortex mixed and centrifuged at 23,100g for 10 min at 20 °C. An aliquot of 80 μL of supernatant was diluted with 120 μL of 10 mM ammonium bicarbonate in water:MeOH (1:1 v/v). The final extract was transferred to a glass vial with insert, and 10 μL was injected to the LC-MS/MS system for analysis.
# (§3) The stability of each analyte was investigated in all the previously mentioned matrices. For plasma (both human and mouse), the stability was determined in triplicate at two concentration levels, QC L and QC H, whereas for mouse tissue homogenates only at QC M (except the brain in one stability condition). For all matrices, the following stability conditions were assessed: short term at room temperature (RT), long term at − 20 °C, and after 3 freeze-thaw (F/T) cycles at − 20 °C/RT. Furthermore, for tissue homogenates, the short-term stability in ice-water, long-term stability at − 70 °C, and F/T stability at − 70 °C/ice-water were also evaluated. Additionally, the stability in the final extract was tested. […] Lastly, the stability of the stock solutions at − 20 °C was investigated.
# [5] = tested on: CDK4; details: cited from earlier work
# [6] = Stability in mouse liver homogenate and its final extract; format: in vitro ADME; details: nominal 50 ng/mL
# Experimental: as §1
# [7] = Stability of stock solutions at − 20 °C; format: physicochemical; details: 1 mg/mL stock solution, storage at − 20 °C
# Experimental: The stability of each analyte was investigated in all the previously mentioned matrices. For plasma (both human and mouse), the stability was determined in triplicate at two concentration levels, QC L and QC H, whereas for mouse tissue homogenates only at QC M (except the brain in one stability condition). For all matrices, the following stability conditions were assessed: short term at room temperature (RT), long term at − 20 °C, and after 3 freeze-thaw (F/T) cycles at − 20 °C/RT. Furthermore, for tissue homogenates, the short-term stability in ice-water, long-term stability at − 70 °C, and F/T stability at − 70 °C/ice-water were also evaluated. Additionally, the stability in the final extract was tested. For this, the QC L and QC H final extracts from the plasma, brain, and spleen and the QC M final extract from the liver, kidney and small intestine were stored at 4–8 °C up to 3 days. Lastly, the stability of the stock solutions at − 20 °C was investigated.
# [8] = Stability in mouse plasma and its final extract (LC-MS/MS); format: in vitro ADME; details: mouse plasma; − 20 °C, 3 m; nominal 150 ng/mL
# Experimental: as §2, §3
# [9] = Stability in mouse spleen homogenate and its final extract; format: in vitro ADME
# Experimental: as §1
# [10] = brain homogenate, 3 F/T (− 70 °C, ice/water bath), nominal 50 ng/mL
# [11] = brain homogenate, LT − 70 °C, 1 m, nominal 50 ng/mL
# [12] = final extract (listed under brain homogenate), 4–8 °C, 3 d, nominal 5 ng/mL
# [13] = kidney homogenate, LT − 70 °C, 1 m
# [14] = liver homogenate, 3 F/T (− 70 °C, ice/water bath)
# [15] = final extract (listed under spleen homogenate), 4–8 °C, 3 d, nominal 5 ng/mL
smiles,measurement,setting,value
CN(C)C(=O)c1cc2cnc(Nc3ccc(N4CCNCC4)cn3)nc2n1C1CCCC1 [Ribociclib],Mean concentration,"[1]; brain homogenate, 3 F/T (RT, − 20 °C), nominal 50 ng/mL",48.8 ng/mL
same,Accuracy (% Bias),[1]; [10],0.1%
same,Mean concentration,[1]; [10],50.0 ng/mL
same,Mean concentration,"[1]; brain homogenate, LT − 20 °C, 1 m, nominal 50 ng/mL",49.1 ng/mL
same,Accuracy (% Bias),[1]; [11],4.6%
same,Mean concentration,[1]; [11],52.3 ng/mL
same,Mean concentration,"[1]; brain homogenate, RT, 1 d, nominal 5 ng/mL",4.6 ng/mL
same,Mean concentration,"[1]; brain homogenate, RT, 1 d, nominal 150 ng/mL",129.7 ng/mL
same,Mean concentration,"[1]; brain homogenate, ice/water bath, 3 h, nominal 50 ng/mL",49.4 ng/mL
same,Accuracy (% Bias),[1]; [12],2.7%
same,Accuracy (% Bias),"[1]; final extract (listed under brain homogenate), 4–8 °C, 3 d, nominal 150 ng/mL",3.1%
same,stability in tissue homogenates (in words),[2]; all tissue homogenates and conditions of Table 6,showed instability in tissue homogenates
same,time stable in kidney and spleen homogenates,[2]; room temperature and ice/water bath,at least 3 h
same,Mean concentration,"[3]; kidney homogenate, 3 F/T (RT, − 20 °C)",15.7 ng/mL
same,Mean concentration,"[3]; kidney homogenate, 3 F/T (− 70 °C, ice/water bath)",49.1 ng/mL
same,Mean concentration,"[3]; kidney homogenate, LT − 20 °C, 1 m",31.5 ng/mL
same,Accuracy (% Bias),[3]; [13],0.5%
same,Mean concentration,[3]; [13],50.2 ng/mL
same,Mean concentration,"[3]; kidney homogenate, RT, 3 h",43.4 ng/mL
same,Mean concentration,"[3]; kidney homogenate, RT, 1 d",0.91 ng/mL
same,Mean concentration,"[3]; kidney homogenate, ice/water bath, 3 h",42.7 ng/mL
same,Mean concentration,"[4]; human plasma, 2 F/T (− 20 °C/RT)",4.7 ng/mL
same,Mean concentration,"[6]; liver homogenate, 3 F/T (RT, − 20 °C)",47.7 ng/mL
same,Accuracy (% Bias),[6]; [14],0.1%
same,Mean concentration,[6]; [14],50.0 ng/mL
same,Mean concentration,"[6]; liver homogenate, LT − 20 °C, 1 m",32.4 ng/mL
same,Mean concentration,"[6]; liver homogenate, RT, 1 d",41.9 ng/mL
same,Mean concentration,"[6]; liver homogenate, ice/water bath, 3 h",45.4 ng/mL
same,stability of stock solutions (time stable),[7],at least 12 months
same,Accuracy (% Bias),[8],4.7%
same,Accuracy (% Bias),[9]; [15],3.2%
same,Mean concentration,"[9]; spleen homogenate, 3 F/T (RT, − 20 °C), nominal 50 ng/mL",42.9 ng/mL
same,Mean concentration,"[9]; spleen homogenate, 3 F/T (− 70 °C, ice/water bath), nominal 50 ng/mL",49.9 ng/mL
same,Mean concentration,"[9]; spleen homogenate, LT − 20 °C, 1 m, nominal 50 ng/mL",40.5 ng/mL
same,Mean concentration,"[9]; spleen homogenate, LT − 70 °C, 1 m, nominal 50 ng/mL",45.0 ng/mL
same,Mean concentration,"[9]; spleen homogenate, RT, 3 h, nominal 50 ng/mL",44.3 ng/mL
same,Mean concentration,"[9]; spleen homogenate, RT, 1 d, nominal 50 ng/mL",21.8 ng/mL
same,Mean concentration,"[9]; spleen homogenate, ice/water bath, 3 h, nominal 50 ng/mL",46.2 ng/mL
